Drawing on the SangsterLogP compilation, this text covers logP for 102 compounds.

Structures are written as SMILES.

For `Clc1cc(Cl)c(Cl)c(-c2c(Cl)cc(Cl)c(Cl)c2Cl)c1`, the logP (in general, a log measure of how a compound divides between an organic and an aqueous phase) was 6.92.

`Clc1ccc(-c2ccccc2Cl)cc1` had a logP of 5.09.

Compound `Clc1cc(Cl)c(Cl)c(-c2c(Cl)c(Cl)cc(Cl)c2Cl)c1` gave a lipophilicity (logP) of 6.85. The value for `Clc1ccc(-c2c(Cl)cc(Cl)c(Cl)c2Cl)cc1Cl` was 6.78; that for `Clc1cc(Cl)c(Cl)c(-c2cc(Cl)c(Cl)c(Cl)c2Cl)c1` was 7.21. The value for `Clc1cc(-c2c(Cl)c(Cl)cc(Cl)c2Cl)c(Cl)c(Cl)c1Cl` was 7.35. The value for `Clc1ccc(-c2ccc(Cl)c(Cl)c2Cl)c(Cl)c1` was 6.18. With `Clc1cc(Cl)c(-c2ccccc2Cl)cc1Cl`, the logP was 5.69. The value for `Clc1cc(-c2c(Cl)c(Cl)c(Cl)c(Cl)c2Cl)cc(Cl)c1Cl` was 7.62; that for `Clc1cc(-c2c(Cl)ccc(Cl)c2Cl)c(Cl)c(Cl)c1Cl` was 6.85. The value for `Clc1cc(Cl)cc(-c2c(Cl)cc(Cl)cc2Cl)c1` was 6.43. The value for `Clc1cc(Cl)c(-c2cccc(Cl)c2Cl)c(Cl)c1` was 6.04. `Clc1ccc(-c2ccc(Cl)c(Cl)c2)c(Cl)c1` displayed a logP of 5.98. The value for `Clc1ccc(-c2c(Cl)c(Cl)c(Cl)c(Cl)c2Cl)c(Cl)c1` was 7.13; that for `Clc1ccc(-c2cc(Cl)c(Cl)cc2Cl)c(Cl)c1` was 6.41. The value for `Clc1cccc(-c2cc(Cl)c(Cl)c(Cl)c2Cl)c1` was 6.92; that for `Clc1cc(-c2c(Cl)cc(Cl)c(Cl)c2Cl)cc(Cl)c1Cl` was 7.21. The value for `Clc1ccc(-c2c(Cl)cccc2Cl)cc1Cl` was 5.76. As for `Clc1cc(Cl)c(-c2ccc(Cl)c(Cl)c2)c(Cl)c1`, the logP was 6.4. `Clc1cc(Cl)cc(-c2cc(Cl)cc(Cl)c2)c1` registered a logP of 6.6. `Clc1cc(Cl)c(-c2cc(Cl)ccc2Cl)c(Cl)c1` showed a lipophilicity (logP) of 6.11. Take `Clc1cc(Cl)cc(-c2c(Cl)c(Cl)c(Cl)c(Cl)c2Cl)c1`: the logP was found to be 7.21. The value for `Clc1ccc(-c2ccccc2Cl)cc1Cl` was 5.71. Take `Clc1ccccc1-c1c(Cl)c(Cl)cc(Cl)c1Cl`: the log partition coefficient (logP) amounted to 6.06.

`Clc1ccc(-c2c(Cl)cc(Cl)c(Cl)c2Cl)c(Cl)c1Cl` registered a lipophilicity (logP) of 6.99. The value for `Clc1ccc(-c2c(Cl)c(Cl)cc(Cl)c2Cl)cc1Cl` was 6.78; that for `Clc1cc(-c2c(Cl)ccc(Cl)c2Cl)cc(Cl)c1Cl` was 6.63. `Clc1cccc(-c2cc(Cl)c(Cl)cc2Cl)c1` displayed a logP of 6.32.

`Clc1cc(Cl)c(-c2c(Cl)cc(Cl)c(Cl)c2Cl)c(Cl)c1Cl` came in with a logP of 7.21. In the case of `Clc1cc(Cl)c(Cl)c(-c2c(Cl)c(Cl)cc(Cl)c2Cl)c1Cl`, the logP worked out at 7.16. The value for `Clc1ccc(Cl)c(-c2cc(Cl)cc(Cl)c2Cl)c1` was 6.32. The value for `Clc1ccc(-c2cc(Cl)ccc2Cl)c(Cl)c1` was 5.87; that for `Clc1ccccc1-c1c(Cl)cccc1Cl` was 5.04.

Regarding `Clc1cccc(-c2ccc(Cl)cc2Cl)c1`, the logP amounted to 5.54. The value for `Clc1ccc(-c2ccc(Cl)cc2Cl)c(Cl)c1` was 5.94; that for `Clc1ccc(Cl)c(-c2c(Cl)cc(Cl)c(Cl)c2Cl)c1` was 6.45; that for `Clc1ccccc1-c1cc(Cl)c(Cl)c(Cl)c1` was 5.98. The value for `Clc1ccc(Cl)c(-c2cc(Cl)c(Cl)c(Cl)c2Cl)c1` was 6.75; that for `Clc1ccc(Cl)c(-c2cc(Cl)c(Cl)cc2Cl)c1` was 6.3; that for `Clc1ccc(-c2ccccc2)c(Cl)c1Cl` was 5.68.

`Clc1cccc(Cl)c1-c1c(Cl)cccc1Cl` displayed a lipophilicity (logP) of 5.24.

In turn, `Clc1cccc(-c2cc(Cl)cc(Cl)c2)c1` displayed a logP of 5.81. The value for `Clc1cc(-c2c(Cl)c(Cl)c(Cl)c(Cl)c2Cl)c(Cl)c(Cl)c1Cl` was 7.94; that for `Clc1cc(Cl)cc(-c2ccccc2Cl)c1` was 5.71; that for `Clc1cc(Cl)c(-c2c(Cl)c(Cl)c(Cl)c(Cl)c2Cl)cc1Cl` was 7.49. The value for `Clc1ccc(-c2c(Cl)c(Cl)cc(Cl)c2Cl)c(Cl)c1Cl` was 6.73.

Consider `Clc1ccc(-c2ccccc2)c(Cl)c1`, for which the logP amounted to 5.16. As to `Clc1cc(Cl)cc(-c2c(Cl)ccc(Cl)c2Cl)c1`, the logP was found to be 6.45. The value for `Clc1ccccc1-c1c(Cl)ccc(Cl)c1Cl` was 4.84. The value for `Clc1ccc(-c2cc(Cl)cc(Cl)c2Cl)c(Cl)c1` was 6.32; that for `Clc1cc(Cl)c(-c2c(Cl)c(Cl)cc(Cl)c2Cl)c(Cl)c1` was 6.78.

As to `Clc1ccc(-c2ccccc2Cl)c(Cl)c1`, the logP stood at 5.39. As to `Clc1ccc(-c2ccccc2)cc1`, the logP was 4.63.

As to `Clc1ccccc1-c1ccc(Cl)c(Cl)c1Cl`, the logP was 5.79. The value for `Clc1ccc(-c2cc(Cl)c(Cl)cc2Cl)cc1` was 6.1; that for `Clc1ccc(-c2cccc(Cl)c2Cl)c(Cl)c1` was 5.72; that for `Clc1ccc(Cl)c(-c2c(Cl)cccc2Cl)c1` was 5.55. The value for `Clc1cccc(-c2ccccc2)c1Cl` was 4.99; that for `Clc1cc(Cl)c(-c2c(Cl)cc(Cl)c(Cl)c2Cl)cc1Cl` was 7.05; that for `Clc1cc(-c2cc(Cl)c(Cl)c(Cl)c2Cl)c(Cl)c(Cl)c1Cl` was 7.62.

The compound `Clc1cccc(-c2cccc(Cl)c2)c1` returned a lipophilicity (logP) of 5.27. In turn, `Clc1ccccc1-c1cc(Cl)c(Cl)c(Cl)c1Cl` showed a logP of 6.39. The value for `Clc1ccc(-c2c(Cl)cccc2Cl)cc1` was 5.24; that for `Clc1ccc(-c2c(Cl)cc(Cl)c(Cl)c2Cl)cc1` was 6.44. The value for `Clc1cc(Cl)c(-c2ccc(Cl)c(Cl)c2Cl)c(Cl)c1` was 6.58; that for `Clc1ccc(Cl)c(-c2c(Cl)c(Cl)c(Cl)c(Cl)c2Cl)c1` was 6.99. `Clc1cc(Cl)c(Cl)c(-c2c(Cl)c(Cl)c(Cl)c(Cl)c2Cl)c1Cl` displayed a logP of 7.77. Consider `Clc1cc(Cl)c(-c2cc(Cl)c(Cl)c(Cl)c2Cl)c(Cl)c1`, for which the lipophilicity (logP) turned out to be 6.92. The value for `Clc1ccc(-c2c(Cl)cccc2Cl)c(Cl)c1Cl` was 5.6; that for `Clc1cc(-c2c(Cl)cc(Cl)c(Cl)c2Cl)c(Cl)c(Cl)c1Cl` was 7.43.

Take `Clc1ccc(Cl)c(-c2ccccc2Cl)c1`: the lipophilicity (logP) is 5.34. The value for `Clc1cc(Cl)c(-c2c(Cl)c(Cl)cc(Cl)c2Cl)cc1Cl` was 6.92; that for `Clc1ccc(-c2cccc(Cl)c2)cc1` was 5.15; that for `Clc1ccc(-c2ccc(Cl)cc2)cc1` was 5.23. The value for `Clc1ccc(-c2c(Cl)c(Cl)c(Cl)c(Cl)c2Cl)c(Cl)c1Cl` was 7.35; that for `Clc1cc(-c2c(Cl)c(Cl)cc(Cl)c2Cl)cc(Cl)c1Cl` was 7.21; that for `Clc1ccc(Cl)c(-c2ccccc2)c1Cl` was 5.44.

With `Clc1ccc(-c2c(Cl)c(Cl)cc(Cl)c2Cl)cc1`, the logP turned out to be 6.39. The value for `Clc1ccc(-c2c(Cl)cc(Cl)cc2Cl)c(Cl)c1` was 6.23; that for `Clc1cc(Cl)c(-c2c(Cl)c(Cl)c(Cl)c(Cl)c2Cl)c(Cl)c1` was 7.48; that for `Clc1ccc(Cl)c(-c2c(Cl)c(Cl)cc(Cl)c2Cl)c1Cl` was 6.41. The value for `Clc1ccc(-c2c(Cl)cc(Cl)cc2Cl)cc1` was 6.03; that for `Clc1ccc(-c2c(Cl)cccc2Cl)c(Cl)c1` was 5.51; that for `Clc1cc(Cl)c(Cl)c(-c2c(Cl)c(Cl)c(Cl)c(Cl)c2Cl)c1` was 7.43. The value for `Clc1cc(Cl)c(-c2ccccc2Cl)c(Cl)c1` was 5.75. Consider `Clc1cccc(-c2cccc(Cl)c2Cl)c1Cl`, for which the log partition coefficient (logP) stood at 5.67. The value for `Clc1ccc(-c2c(Cl)c(Cl)c(Cl)c(Cl)c2Cl)cc1Cl` was 7.08; that for `Clc1ccc(-c2ccc(Cl)c(Cl)c2)cc1` was 5.78. The value for `Clc1cc(Cl)c(-c2ccc(Cl)c(Cl)c2Cl)cc1Cl` was 6.72.

With `Clc1cccc(-c2c(Cl)c(Cl)cc(Cl)c2Cl)c1`, the logP came to 6.41. The compound `Clc1cc(Cl)cc(-c2ccccc2)c1` returned a log partition coefficient (logP) of 5.41. On to `Clc1ccc(Cl)c(-c2c(Cl)c(Cl)c(Cl)c(Cl)c2Cl)c1Cl`, for which the logP turned out to be 7.21. For the compound `Clc1ccc(Cl)c(-c2ccccc2)c1`, the log partition coefficient (logP) stood at 5.1. The value for `Clc1cccc(-c2cc(Cl)c(Cl)c(Cl)c2Cl)c1Cl` was 6.76; that for `Clc1ccc(-c2c(Cl)ccc(Cl)c2Cl)cc1` was 5.76; that for `Clc1ccc(Cl)c(-c2ccc(Cl)c(Cl)c2Cl)c1` was 6.23.

Regarding `Clc1cccc(-c2cc(Cl)ccc2Cl)c1`, the lipophilicity (logP) worked out at 5.65.

As to `Clc1ccccc1-c1ccccc1`, the lipophilicity (logP) came to 4.42. The value for `Clc1cccc(-c2c(Cl)cccc2Cl)c1Cl` was 4.84. Compound `Clc1ccc(-c2cccc(Cl)c2Cl)cc1Cl` registered a logP of 5.85.

`Clc1ccc(-c2cc(Cl)cc(Cl)c2Cl)cc1` came in with a lipophilicity (logP) of 6.1. For `Clc1cccc(-c2c(Cl)cc(Cl)cc2Cl)c1`, the lipophilicity (logP) was determined as 6.03.
